Assay results from patent publication US11881606B2, “Conductive materials to drive bacterial carbon dioxide fixation” (The Government of the United States of America, as …, priority 2019, dated 2024).
“And” between values parts separate entries of the source, which are not always exact repeats. Equal entries are not always repeated.

Assays:
[1] = tested on: Biocathode MCL; assay: Current production by Biocathode MCL on electrode set at 0.310 V with antibiotics; format: cell-based; conditions: ampicillin at 100 μg/ml; electrode potential set at 0.310 V
Description: (§1) Biocathode MCL was cultivated in artificial seawater (ASW) medium containing 27.50 g NaCl, 3.80 g MgCl2·6H2O, 6.78 g MgSO4·H2O, 0.72 g KCl, 0.62 g NaHCO3, 5.58 g CaCl2·H2O, 1.00 g NH4Cl, 0.05 g K2HPO4, and 1 ml Wolfe's Trace Mineral Solution per liter. The NaHCO3 was autoclaved in a separate sealed bottle and added after cooling to avoid precipitation. The medium was adjusted to a pH between 6.5 and 6.8 by briefly bubbling with 100% CO2. Source cultures were continuously maintained in 2 liter, 3-electrode reactors with carbon cloth as working and counter electrodes. The working electrode was poised at 0.310 V SHE (standard hydrogen electrode).
For these experiments, bioelectrochemical systems (BES) were 175 ml glass electrochemical reactors (Pine Instruments, Grove City, Pa.). Working electrodes were either 10.5 cm^2 graphite flags (Tri-Gemini, Hillside, Ill.) or carbon cloth (Fuel Cell Earth, Woburn, Mass.) cut to roughly 3.5×1.5 cm for an area of 10.5 cm^2. Counter electrodes were carbon cloth electrodes cut to approximately 3.5×1.5 cm. Graphite flags were sanded down prior to cleaning. Both carbon cloth and graphite flag electrodes were soaked overnight in 1 M hydrochloric acid, then rinsed and soaked overnight in ultrapure deionized water (MilliQ, Millipore-Sigma, Burlington, Mass.). Electrodes were suspended in the reactors from titanium wires, attached by titanium screws. […]

[2] = tested on: Biocathode MCL; assay: Effect of antibiotics and cyanide on the open circuit potential (OCP) of electrodes with Biocathode MCL biofilm; format: cell-based
Description: FIGS. 3A and 3B illustrate the effect of the addition of antibiotics on the open circuit potential (OCP). […]
as §1
For these experiments, bioelectrochemical systems (BES) were 175 ml glass electrochemical reactors (Pine Instruments, Grove City, Pa.). Working electrodes were either 10.5 cm^2 graphite flags (Tri-Gemini, Hillside, Ill.) or carbon cloth (Fuel Cell Earth, Woburn, Mass.) cut to roughly 3.5×1.5 cm for an area of 10.5 cm^2. Counter electrodes were carbon cloth electrodes cut to approximately 3.5×1.5 cm. Graphite flags were sanded down prior to cleaning. Both carbon cloth and graphite flag electrodes were soaked overnight in 1 M hydrochloric acid, then rinsed and soaked overnight in ultrapure deionized water (MilliQ, Millipore-Sigma, Burlington, Mass.). Electrodes were suspended in the reactors from titanium wires, attached by titanium screws. The reference electrodes for the experiments were 3 M KCl Ag/AgCl (BASI, West Lafayette, Ind.) washed in bleach and rinsed in sterile ultrapure deionized water. All potentials are reported here as vs. SHE by adding 0.21V to the experimental potentials vs. Ag/AgCl.
Once assembled, the BES were maintained at 30° C. using water jackets and stirred using small stir bars and stir plates (VWR, Radnor, Pa., USA). The electrodes were connected to a multichannel potentiostat (Biologic, Seyssinet-Pariset, France), which was used to record cyclic voltammograms at fast (20 mV/S) and slow (0.2 mV/S) scan rates, and then to monitor the OCP or, for experiments with set potential, to hold the potential at 0.310 V and monitor current production. After the signal stabilized, the reactors were inoculated with 1 ml of initial inoculum diluted 10^−3 or 10^−4-fold. Based on the cell counts of filtered inoculum, reactors in experiment 1 were inoculated with ca. 30 or ca. 300 cells, while reactors in experiment 2 were inoculated with ca. 110 or ca. 1100 cells and reactors in experiment 3 were inoculated with 700 cells.
The effect of antibiotics on the open circuit potential was examined in order to determine whether the maintenance of the OCP was dependent on metabolically active cells. Because ampicillin kills only dividing cells (by interfering with cell wall formation^21), while kanamycin kills by interfering with translation machinery (killing bacteria that are actively manufacturing proteins^21), these antibiotics were used to determine the rough metabolic state of the cells.
To test how long the cells remained active and sensitive to antibiotics, reactors were incubated for 26 days before antibiotic additions. The inoculated reactors maintained an OCP close to 0.50 V vs. SHE during the 26-day incubation. […] Cyanide, which inhibits cytochrome function, caused an immediate drop in potential in both old and young reactors (FIGS. 3A and 3B).

[3] = added 10 days after inoculation

CC1(C)S[C@@H]2[C@H](NC(=O)[C@H](N)c3ccccc3)C(=O)N2[C@H]1C(=O)O [ampicillin]
Current production [1]: inhibited | OCP at end of drop [2, 3]: return to its pre-inoculation level | Time until OCP began dropping [2, 3]: 2 to 3 days | Time until OCP reduction began ([2]; added 26 days after inoculation): two | Effect on OCP ([2]; added 26 days after inoculation, followed for two weeks): not returning to the abiotic OCP even after two weeks

NC[C@H]1O[C@H](O[C@H]2[C@H](O)[C@@H](O[C@H]3O[C@H](CO)[C@@H](O)[C@H](N)[C@H]3O)[C@H](N)C[C@@H]2N)[C@H](O)[C@@H](O)[C@@H]1O [kanamycin]
Time until drop in OCP began ([2]; added 10 days after inoculation, two experiments): 13 h and 10 h
